Reference: patent US12186323B2, “Combination drugs of hypoxanthine and human immunoglobulin” (Institute of Blood Transfusion, Chinese Academy of Medical …, priority 2021, dated 2025)

System: male mice
Assay: Analysis of intestinal injury by 12 Gy of local abdominal irradiation
Format: in vivo
Conditions: 12 Gy local abdominal irradiation
Experimental: 44 male mice were divided into 4 groups: • 1) TAI group, 10 mice; • 2) hypoxanthine group, 10 mice; • 3) IVIg group, 12 mice; • 4) IVIg+hypoxanthine group, 12 mice;
TAI group received only local abdominal irradiation.
Hypoxanthine was orally administered to the mice in hypoxanthine group 30 min before irradiation, followed by gavage through mouth every two days. The dose of hypoxanthine for each gavage was 50 mg/kg body weight.

[1] = hypoxanthine vs TAI group (FIG. 6), IVIg+hypoxanthine vs IVIg group (FIG. 8)

O=c1[nH]cnc2nc[nH]c12 [hypoxanthine]
no difference: length of the large intestine (hypoxanthine vs TAI group (FIG. 5), IVIg+hypoxanthine vs IVIg group (FIG. 7)) | level of inflammatory factor IL-6 in the small intestine [1] | level of inflammatory factor TNFα in the small intestine [1]
